Where no end group is shown, it is not given here.
What was measured:
[1] = tested on: ischemic-injured porcine jejunum; test: Recovery of barrier function (transepithelial electrical resistance) in ischemic-injured porcine jejunum in Ussing chambers, with indomethacin; type: cell-based, Yorkshire-cross pigs; details: FIG. 1
Text: In order to determine whether Larazotide could function as a therapeutic agent that could stimulate intestinal tissue repair in the presence of a non-steroidal anti-inflammatory drug (NSAID), recovery of barrier function in ischemic-injured porcine jejunum was monitored in the presence of the NSAID indomethacin.
Specifically, Yorkshire-cross pigs of 6-8 weeks of age were anesthetized, followed by midline laparotomy and creation of a series of 10 cm intestinal loops commencing proximal to the ileum by ligating the intestinal lumen.
The local mesenteric vasculature was ligated to select treatment loops for a period of 45 minutes. Other loops were left as non-ischemic controls. The loops were subsequently resected, and the mucosal tissues were stripped in oxygenated (95% O2/5 % CO2) rings from the muscle layers in preparation of ex vivo incubation in Ussing chambers.
Select tissues (n=8) were pre-treated with indomethacin (5 μM) on both sides of the tissue, prior to receiving 0.1-10 μM Larazotide on the luminal surface after 30 minutes of incubation in the Ussing chambers.
Transepithelial electrical resistance (TER) was monitored in the tissues for 240 minutes.

[2] = clinical trials, cited from earlier work
tight junction = test: Tight junction regulator activity of larazotide fragments; details: for Activity of full length larazotide when mixed with the two fragments: GVLVQPG and VLVQPG mixed with full length larazotide; for Activity as tight junction regulators: fragment alone

## COc1ccc2c(c1)c(CC(=O)O)c(C)n2C(=O)c1ccc(Cl)cc1 [indomethacin]
[1]; indomethacin applied without larazotide
  Transepithelial electrical resistance (TER): decline in TER

## GGVLVQPG [Larazotide]
[1]; 1 μM larazotide on luminal surface, in the presence of indomethacin (5 μM), monitored for 240 minutes
  Transepithelial electrical resistance (TER): increased TER
[2]; higher doses (e.g., 1 mg and 2 mg doses)
  Clinical activity at higher doses: attenuation of activity, or no activity at all
[2]; lower doses (e.g., 0.5 mg dose)
  Clinical benefit on intestinal disease symptoms: benefit at reducing intestinal disease symptoms

## GVLVQPG [larazotide-derived fragment missing an N-terminal glycine residue]
Tight junction
  Activity of full length larazotide when mixed with the two fragments: activity is completely abolished
  Activity as tight junction regulators: largely inactive

## VLVQPG [larazotide-derived fragment missing N-terminal glycine residues]
Tight junction
  Activity of full length larazotide when mixed with the two fragments: activity is completely abolished
  Activity as tight junction regulators: largely inactive
